For four molecules, T/C results are on record in PubChem BioAssay AID200 (DTP/NCI, 2004).

This assay deals with B6C3F1 mice, B16 melanoma ip, median survival T/C. Nature of the assay: NCI In Vivo Anticancer Drug Screen. Data for tumor model B16 Melanoma (intraperitoneal) in B6C3F1 mice. Particulars: endpoint: median survival time, higher = longer survival. An outline of the steps:
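Readout: survival or tumor size in treated mice relative to vehicle controls (T/C). Model uses transplantable tumors grown in mice.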

Values joined by “and” are separate entries in the source; they are usually repeats but may differ in a detail not shown here. Equal entries are not always repeated. Inconclusive results and toxic doses are left out.

Turning to `C[C@@]1(CO)[C@H](O)CC[C@@]2(C)[C@H]1CC[C@H]1C[C@@H]3C[C@@]12CC[C@@]3(O)COC(=O)CN`, the T/C (dose: 0.02 mg/kg/injection, schedule: Q01DX009 (ip), vehicle: saline + alcohol) was 98 % of control; the T/C (dose: 0.37 mg/kg/injection, schedule: Q01DX009 (ip), vehicle: saline + alcohol) was 94 % of control; the T/C (dose: 0.4 mg/kg/injection, schedule: Q01DX009 (ip), vehicle: saline + alcohol) is 102 % of control; the T/C (dose: 0.75 mg/kg/injection, schedule: Q01DX009 (ip), vehicle: saline + alcohol) is 98 % of control; the T/C (dose: 0.8 mg/kg/injection, schedule: Q01DX009 (ip), vehicle: saline + alcohol) was 124 % of control; the T/C (dose: 1.5 mg/kg/injection, schedule: Q01DX009 (ip), vehicle: saline + alcohol) was 101 % of control. Moreover, the T/C by setting is: (dose: 1.6 mg/kg/injection, schedule: Q01DX009 (ip), vehicle: saline + alcohol) 101 % of control; (dose: 1.7 mg/kg/injection, schedule: Q01DX005 (iv), vehicle: saline + alcohol) 108 % of control; (dose: 2.1 mg/kg/injection, schedule: Q01DX001 (iv), vehicle: saline + alcohol) 111 % of control; (dose: 2.1 mg/kg/injection, schedule: Q03HX008 (ip), vehicle: saline + alcohol) 120 % of control; (dose: 2.8 mg/kg/injection, schedule: Q03HX024 (ip), vehicle: saline + alcohol) 97 % of control; (dose: 3.0 mg/kg/injection, schedule: Q01DX009 (ip), vehicle: saline + alcohol) 102 % of control. In addition, the T/C was 99 % of control (dose: 3.4 mg/kg/injection, schedule: Q01DX005 (iv), vehicle: saline + alcohol); 103 % of control (dose: 4.2 mg/kg/injection, schedule: Q01DX001 (iv), vehicle: saline + alcohol); 119 % of control (dose: 4.2 mg/kg/injection, schedule: Q03HX008 (ip), vehicle: saline + alcohol); 113 % of control and 105 % of control and 107 % of control (dose: 5.0 mg/kg/injection, schedule: Q03HX027 (ip), vehicle: saline + alcohol); 109 % of control (dose: 5.0 mg/kg/injection, schedule: Q03HX027 (sc), vehicle: saline + alcohol); 116 % of control (dose: 5.6 mg/kg/injection, schedule: Q03HX024 (ip), vehicle: saline + alcohol). In addition, the T/C is 93 % of control (dose: 6.0 mg/kg/injection, schedule: Q01DX009 (ip), vehicle: saline + alcohol); 95 % of control (dose: 6.75 mg/kg/injection, schedule: Q01DX005 (ip), vehicle: saline + alcohol); 96 % of control (dose: 6.8 mg/kg/injection, schedule: Q01DX005 (iv), vehicle: saline + alcohol); 114 % of control (dose: 8.4 mg/kg/injection, schedule: Q03HX008 (ip), vehicle: saline + alcohol); 109 % of control (dose: 8.5 mg/kg/injection, schedule: Q01DX001 (iv), vehicle: saline + alcohol); 117 % of control and 123 % of control (dose: 10.0 mg/kg/injection, schedule: Q03HX027 (ip), vehicle: saline + alcohol). Moreover, the T/C reads like this: (dose: 10.0 mg/kg/injection, schedule: Q03HX027 (sc), vehicle: saline) 102 % of control; (dose: 12.5 mg/kg/injection, schedule: Q01DX009 (ip), vehicle: saline + alcohol) 111 % of control and 120 % of control; (dose: 13.5 mg/kg/injection, schedule: Q01DX005 (ip), vehicle: saline + alcohol) 104 % of control; (dose: 15.0 mg/kg/injection, schedule: Q01DX009 (ip), vehicle: saline + alcohol) 116 % of control; (dose: 16.8 mg/kg/injection, schedule: Q03HX008 (ip), vehicle: saline + alcohol) 114 % of control; (dose: 16.9 mg/kg/injection, schedule: Q01DX001 (ip), vehicle: saline + alcohol) 103 % of control. The T/C runs as follows: (dose: 16.9 mg/kg/injection, schedule: Q01DX001 (iv), vehicle: saline + alcohol) 103 % of control; (dose: 20.0 mg/kg/injection, schedule: Q03HX027 (ip), vehicle: saline + alcohol) 162 % of control; (dose: 20.0 mg/kg/injection, schedule: Q03HX027 (sc), vehicle: saline + alcohol) 108 % of control; (dose: 20.0 mg/kg/injection, schedule: Q03HX027 (sc), vehicle: saline) 100 % of control; (dose: 22.5 mg/kg/injection, schedule: Q04DX003 (ip), vehicle: saline + alcohol) 98 % of control; (dose: 25.0 mg/kg/injection, schedule: Q01DX009 (ip), vehicle: saline + alcohol) 121 % of control and 122 % of control. Moreover, the T/C reads like this: (dose: 27.0 mg/kg/injection, schedule: Q01DX005 (ip), vehicle: saline + alcohol) 124 % of control; (dose: 27.0 mg/kg/injection, schedule: Q01DX005 (iv), vehicle: saline + alcohol) 105 % of control; (dose: 30.0 mg/kg/injection, schedule: Q01DX009 (ip), vehicle: saline + alcohol) 124 % of control; (dose: 30.0 mg/kg/injection, schedule: Q01DX009 (oral), vehicle: saline + alcohol) 115 % of control; (dose: 33.7 mg/kg/injection, schedule: Q03HX008 (ip), vehicle: saline + alcohol) 115 % of control; (dose: 33.8 mg/kg/injection, schedule: Q01DX001 (ip), vehicle: saline + alcohol) 110 % of control. The T/C (dose: 33.8 mg/kg/injection, schedule: Q01DX001 (iv), vehicle: saline + alcohol) is 115 % of control; the T/C (dose: 40.0 mg/kg/injection, schedule: Q03HX027 (ip), vehicle: saline + alcohol) was 175 % of control and 176 % of control; the T/C (dose: 40.0 mg/kg/injection, schedule: Q03HX027 (sc), vehicle: saline + alcohol) was 98 % of control; the T/C (dose: 40.0 mg/kg/injection, schedule: Q03HX027 (sc), vehicle: saline) is 102 % of control; the T/C (dose: 45.0 mg/kg/injection, schedule: Q04DX003 (ip), vehicle: saline + alcohol) was 92 % of control; the T/C (dose: 50.0 mg/kg/injection, schedule: Q01DX009 (ip), vehicle: saline + alcohol) is 151 % of control. The T/C runs as follows: (dose: 54.0 mg/kg/injection, schedule: Q01DX005 (ip), vehicle: saline + alcohol) 113 % of control; (dose: 54.0 mg/kg/injection, schedule: Q01DX005 (iv), vehicle: saline + alcohol) 115 % of control; (dose: 60.0 mg/kg/injection, schedule: Q01DX009 (oral), vehicle: saline + alcohol) 117 % of control; (dose: 67.5 mg/kg/injection, schedule: Q01DX001 (ip), vehicle: saline + alcohol) 104 % of control; (dose: 67.5 mg/kg/injection, schedule: Q01DX001 (iv), vehicle: saline + alcohol) 105 % of control; (dose: 80.0 mg/kg/injection, schedule: Q03HX027 (sc), vehicle: saline + alcohol) 121 % of control. Further, the T/C is, setting by setting: (dose: 80.0 mg/kg/injection, schedule: Q03HX027 (sc), vehicle: saline) 102 % of control; (dose: 90.0 mg/kg/injection, schedule: Q04DX003 (ip), vehicle: saline + alcohol) 91 % of control; (dose: 240.0 mg/kg/injection, schedule: Q01DX009 (oral), vehicle: saline + alcohol) 114 % of control; (dose: 36.0 micrograms per hour, schedule: Q#X X216 (sc), vehicle: saline) 100 % of control; (dose: 72.0 micrograms per hour, schedule: Q#X X216 (sc), vehicle: saline) 102 % of control; (dose: 144.0 micrograms per hour, schedule: Q#X X216 (sc), vehicle: saline) 118 % of control.

As for `O=C(CCl)Oc1ccc(-c2ccccc2)cc1Br`, the T/C is, setting by setting: (dose: 50.0 mg/kg/injection, schedule: Q01DX009 (ip), vehicle: saline with Tween-80) 98 % of control; (dose: 100.0 mg/kg/injection, schedule: Q01DX009 (ip), vehicle: saline with Tween-80) 90 % of control; (dose: 200.0 mg/kg/injection, schedule: Q01DX009 (ip), vehicle: saline with Tween-80) 87 % of control.

Turning to `O=C1NC(O)CCN1C1OC(CO)C(O)C1O` (stereo not drawn), the T/C runs as follows: (dose: 25.0 mg/kg/injection, schedule: Q01DX008 (ip), vehicle: saline) 104 % of control; (dose: 50.0 mg/kg/injection, schedule: Q01DX008 (ip), vehicle: saline) 99 % of control; (dose: 100.0 mg/kg/injection, schedule: Q01DX008 (ip), vehicle: saline) 104 % of control; (dose: 200.0 mg/kg/injection, schedule: Q01DX008 (ip), vehicle: saline) 108 % of control; (dose: 400.0 mg/kg/injection, schedule: Q01DX008 (ip), vehicle: saline) 108 % of control; (dose: 800.0 mg/kg/injection, schedule: Q01DX008 (ip), vehicle: saline) 96 % of control.

On to `O=C(O)CCCc1ccc(N(CCCl)CCCl)cc1`, for which the T/C runs as follows: (dose: 1.56 mg/kg/injection, schedule: Q01DX009 (ip), vehicle: saline with Tween-80) 113 % of control and 106 % of control; (dose: 3.13 mg/kg/injection, schedule: Q01DX009 (ip), vehicle: saline with Tween-80) 119 % of control and 103 % of control; (dose: 6.25 mg/kg/injection, schedule: Q01DX009 (ip), vehicle: saline with Tween-80) 118 % of control; (dose: 12.5 mg/kg/injection, schedule: Q01DX009 (ip), vehicle: saline with Tween-80) 98 % of control and 106 % of control.
